Target: T1, recombinant human HDAC6 (Homo sapiens, UniProt Q9UBN7)
T1 sequence (Q9UBN7 1-1215): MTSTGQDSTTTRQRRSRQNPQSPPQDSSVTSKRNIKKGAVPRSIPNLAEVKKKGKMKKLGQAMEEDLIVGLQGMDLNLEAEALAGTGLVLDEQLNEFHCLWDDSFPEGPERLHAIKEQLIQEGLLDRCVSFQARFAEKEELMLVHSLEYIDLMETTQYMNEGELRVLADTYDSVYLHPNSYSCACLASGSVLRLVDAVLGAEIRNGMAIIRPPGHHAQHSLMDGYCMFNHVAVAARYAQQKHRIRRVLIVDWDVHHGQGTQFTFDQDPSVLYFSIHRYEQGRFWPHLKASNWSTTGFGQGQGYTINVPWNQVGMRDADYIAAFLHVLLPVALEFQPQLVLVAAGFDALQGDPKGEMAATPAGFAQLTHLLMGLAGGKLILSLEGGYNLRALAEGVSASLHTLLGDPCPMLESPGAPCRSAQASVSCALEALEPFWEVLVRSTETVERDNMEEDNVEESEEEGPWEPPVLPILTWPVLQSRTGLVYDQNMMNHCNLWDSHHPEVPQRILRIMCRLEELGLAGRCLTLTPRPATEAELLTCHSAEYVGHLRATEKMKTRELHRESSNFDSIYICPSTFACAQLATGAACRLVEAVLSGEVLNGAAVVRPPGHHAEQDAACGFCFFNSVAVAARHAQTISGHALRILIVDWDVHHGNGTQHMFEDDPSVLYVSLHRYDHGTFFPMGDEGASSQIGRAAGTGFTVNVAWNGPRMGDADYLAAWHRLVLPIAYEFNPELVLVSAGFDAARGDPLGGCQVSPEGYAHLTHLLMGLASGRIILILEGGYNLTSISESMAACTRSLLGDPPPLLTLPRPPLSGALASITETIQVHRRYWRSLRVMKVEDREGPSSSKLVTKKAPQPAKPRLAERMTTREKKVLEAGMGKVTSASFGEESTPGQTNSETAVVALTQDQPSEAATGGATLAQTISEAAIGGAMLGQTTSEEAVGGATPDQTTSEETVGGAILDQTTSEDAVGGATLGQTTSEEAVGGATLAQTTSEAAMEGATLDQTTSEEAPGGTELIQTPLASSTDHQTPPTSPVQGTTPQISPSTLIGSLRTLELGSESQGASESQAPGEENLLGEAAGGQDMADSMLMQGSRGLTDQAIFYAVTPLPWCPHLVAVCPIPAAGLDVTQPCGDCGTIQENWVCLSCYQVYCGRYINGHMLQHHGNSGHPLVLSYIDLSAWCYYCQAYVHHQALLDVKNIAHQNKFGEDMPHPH
Test: Enzymatic screening on recombinant human HDAC6
Format: biochemical
Conditions: Table 2; read-out: HDAC6 IC50
Experimental: Enzymatic activity on recombinant human HDAC6 and HDAC3 was evaluated (Table 2) for each synthesized compound.
After a period of incubation at 30° C. (incubation times vary for different isoforms and are shown in table 1) 25 μL of solution containing the substrate were added. As substrate, FLUOR DE LYS® deacetylase substrate (Enzo Life Sciences, cat #BML-K1104, FdL), FLUOR DE LYS®-Green substrate (Enzo Life Sciences, cat #BML-K1572 FdL_G) and trifluoroacetyl-L-lysine (Tfal)-2× concentrated solution in 25 mM Tris-HCl, pH 8, 130 mM NaCl 0.05% Tween-20 10% glycerol) were used. Following a reaction period at 30° C.

SMILES	IC50 [µM]
Cn1c(Sc2c(F)cc(C(=O)NO)cc2F)nnc1-c1scc2c1OCCO2 [comp. 118, 4-[[5-(2,3-dihydrothieno[3,4-b][1,4]dioxin-5-yl)-4-methyl-1,2,4-triazol-3-yl]sulfanyl]-3,5-difluoro-benzenecarbohydroxamic acid]	0.006
O=C(NO)c1cc(F)c(Cn2nnc(-c3ccc(S(F)(F)(F)(F)F)cc3)n2)c(F)c1 [comp. 112, 3,5-difluoro-4-[[5-[4-(pentafluoro-lambda6-sulfanyl)phenyl]tetrazol-2-yl]methyl]benzenecarbohydroxamic acid]	0.123
O=C(NO)c1ccc(Cn2nnc(-c3cccc(S(F)(F)(F)(F)F)c3)n2)cc1 [comp. 106, 4-[[5-[3-(pentafluoro-lambda6-sulfanyl)phenyl]tetrazol-2-yl]methyl]benzenecarbohydroxamic acid]	0.026
COc1ccc(-c2nnn(Cc3ccc(C(=O)NO)cc3)n2)cc1 [comp. 35, 4-[[5-(4-methoxyphenyl)tetrazol-2-yl]methyl]benzenecarbohydroxamic acid]	0.005
O=C(NO)c1cc(F)c(Cn2nnc(-c3cccc(S(F)(F)(F)(F)F)c3)n2)c(F)c1 [comp. 108, 3,5-difluoro-4-[[5-[3-(pentafluoro-lambda6-sulfanyl)phenyl]tetrazol-2-yl]methyl]benzenecarbohydroxamic acid]	0.108
O=C(NO)c1ccc(Cc2nnc(-c3cccc(S(=O)(=O)N4CCOCC4)c3)o2)cc1 [comp. 64, 4-[[5-(3-morpholinosulfonylphenyl)-1,3,4-oxadiazol-2-yl]methyl]benzenecarbohydroxamic acid]	0.013
Cn1c(Sc2c(F)cc(C(=O)NO)cc2F)nnc1-c1cc(-c2cccs2)n(-c2ccccc2)n1 [comp. 136, 3,5-difluoro-4-[[4-methyl-5-[1-phenyl-5-(2-thienyl)pyrazol-3-yl]-1,2,4-triazol-3-yl]sulfanyl]benzenecarbohydroxamic acid]	0.04
O=C(NO)c1ccc(Sc2nc(C3CC3)n(-c3ccccc3)n2)cc1 [comp. 72, 4-[(5-cyclopropyl-1-phenyl-1,2,4-triazol-3-yl)sulfanyl]benzenecarbohydroxamic acid]	0.162
O=C(NO)c1ccc(Cc2nnc(-c3ccc(S(=O)(=O)N4CCCC4)cc3)o2)cc1 [comp. 69, 4-[[5-(4-pyrrolidin-1-ylsulfonylphenyl)-1,3,4-oxadiazol-2-yl]methyl]benzenecarbohydroxamic acid]	0.011
O=C(NO)c1cc(F)c(Cn2nnnc2-c2ccc(S(F)(F)(F)(F)F)cc2)c(F)c1 [comp. 113, 3,5-difluoro-4-[[5-[4-(pentafluoro-lambda6-sulfanyl)phenyl]tetrazol-1-yl]methyl]benzenecarbohydroxamic acid]	0.158
O=C(NO)c1cc(F)c(Sc2nnc(-c3ccco3)n2Cc2ccccc2)c(F)c1 [comp. 142, 4-[[4-benzyl-5-(2-furyl)-1,2,4-triazol-3-yl]sulfanyl]-3,5-difluoro-benzenecarbohydroxamic acid]	0.02
Cn1c(Sc2c(F)cc(C(=O)NO)cc2F)nnc1-c1cccc(N2CC[N+](C)([O-])CC2)c1 [comp. 114, 3,5-difluoro-4-[[4-methyl-5-[3-(4-methyl-4-oxido-piperazin-4-ium-1-yl)phenyl]-1,2,4-triazol-3-yl]sulfanyl]benzenecarbohydroxamic acid]	0.256
Cn1c(Sc2c(F)cc(C(=O)NO)cc2F)nnc1-c1cc2ccccc2cn1 [comp. 148, 3,5-difluoro-4-[[5-(3-isoquinolyl)-4-methyl-1,2,4-triazol-3-yl]sulfanyl]benzenecarbohydroxamic acid]	0.006
O=C(NO)c1cc(F)c(Sc2nnc(-c3cccs3)n2Cc2ccccc2)c(F)c1 [comp. 143, 4-[[4-benzyl-5-(2-thienyl)-1,2,4-triazol-3-yl]sulfanyl]-3,5-difluoro-benzenecarbohydroxamic acid]	0.025
O=C(NO)c1ccc(Cn2nnnc2-c2ncc(C(F)(F)F)cc2N2CCOCC2)cc1 [comp. 131, 4-[[5-[3-morpholino-5-(trifluoromethyl)-2-pyridyl]tetrazol-1-yl]methyl]benzenecarbohydroxamic acid]	0.057
O=C(NO)c1ccc(Cn2nnc(-c3ncc(C(F)(F)F)cc3N3CCOCC3)n2)cc1 [comp. 130, 4-[[5-[3-morpholino-5-(trifluoromethyl)-2-pyridyl]tetrazol-2-yl]methyl]benzenecarbohydroxamic acid]	0.837
O=C(NO)c1cc(F)c(Cc2noc(-c3ccc(CN4CCCC4)o3)n2)c(F)c1 [compound 202, 3,5-difluoro-4-[[5-[5-(pyrrolidin-1-ylmethyl)-2-furyl]-1,2,4-oxadiazol-3-yl]methyl]benzenecarbohydroxamic acid]	0.009
O=C(NO)c1ccc(Cn2nnc(-c3ccc(F)cc3)n2)cc1 [comp. 34, 4-[[5-(4-fluorophenyl)tetrazol-2-yl]methyl]benzenecarbohydroxamic acid]	0.007

Now from value to molecule:

IC50 [µM]	SMILES
0.006	O=C(NO)c1ccc(Cn2nnc(-c3ccc(Cl)s3)n2)cc1 [comp. 32, 4-[[5-(5-chloro-2-thienyl)tetrazol-2-yl]methyl]benzenecarbohydroxamic acid]
0.283	O=C(NO)c1ccc(Cn2nnnc2Cc2ccccn2)cc1 [comp. 133, 4-[[5-(2-pyridylmethyl)tetrazol-1-yl]methyl]benzenecarbohydroxamic acid;2,2,2-trifluoroacetic acid]
0.333	COc1ccccc1-n1nc(-c2cccs2)nc1Cc1ccc(C(=O)NO)cc1 [comp. 53, 4-[[2-(2-methoxyphenyl)-5-(2-thienyl)-1,2,4-triazol-3-yl]methyl]benzenecarbohydroxamic acid]
0.045	O=C(NO)c1cc(F)c(Cn2nnc(-c3ccc(C(F)(F)F)cn3)n2)c(F)c1 [comp. 128, 3,5-difluoro-4-[[5-[5-(trifluoromethyl)-2-pyridyl]tetrazol-2-yl]methyl]benzenecarbohydroxamic acid]
0.008	CN(C)c1ccc(-c2nnc(Sc3ccc(C(=O)NO)cc3)n2C)cc1 [comp. 73, 4-[[5-[4-(dimethylamino)phenyl]-4-methyl-1,2,4-triazol-3-yl]sulfanyl]benzenecarbohydroxamic acid]
0.051	O=C(NO)c1cc(F)c(Sc2nnc(-c3cccs3)[nH]2)c(F)c1 [comp. 97, 3,5-difluoro-4-[[5-(2-thienyl)-4H-1,2,4-triazol-3-yl]sulfanyl]benzenecarbohydroxamic acid]
0.086	O=C(NO)c1ccc(Cn2nnc(-c3ccc(C(F)(F)F)cn3)n2)cc1 [comp. 126, 4-[[5-[5-(trifluoromethyl)-2-pyridyl]tetrazol-2-yl]methyl]benzenecarbohydroxamic acid]
0.002	O=C(NO)c1ccc(Cn2nnnc2-c2nccc3ccccc23)cc1 [comp. 88, 4-[[5-(1-isoquinolyl)tetrazol-1-yl]methyl]benzenecarbohydroxamic acid]
0.056	O=C(NO)c1ccc(Sc2nnc(-c3ccccc3)n2-c2ccccc2)cc1 [comp. 24, 4-[(4,5-diphenyl-1,2,4-triazol-3-yl)sulfanyl]benzenecarbohydroxamic acid]
0.136	O=C(NO)c1ccc(Nc2nnc(-c3ccccc3)o2)cc1 [comp. 60, 4-[(5-phenyl-1,3,4-oxadiazol-2-yl)amino]benzenecarbohydroxamic acid]
0.02	O=C(NO)c1ccc(Cn2nnc(-c3ccc4ccccc4n3)n2)cc1 [comp. 90, 4-[[5-(2-quinolyl)tetrazol-2-yl]methyl]benzenecarbohydroxamic acid]
0.048	COc1ccc(C2(c3nnc(Sc4c(F)cc(C(=O)NO)cc4F)n3C)CC2)cc1 [compound 104, 3,5-difluoro-4-[[5-[1-(4-methoxyphenyl)cyclopropyl]-4-methyl-1,2,4-triazol-3-yl]sulfanyl]benzenecarbohydroxamic acid]
0.072	O=C(NO)c1ccc(Cn2nnnc2-c2ncccn2)cc1 [comp. 124, 4-[(5-pyrimidin-2-yltetrazol-1-yl)methyl]benzenecarbohydroxamic acid]
